Six compounds from ChEMBL document CHEMBL1201862, “PubChem BioAssay data set” (2004) can be followed below.

For orientation: IC50 means the point on the concentration scale where inhibition reaches its midpoint. A word on the AC50: it is the concentration giving half of the maximal activity seen.

Experiment [1] deals with T1, Zinc finger protein mex-5 (Caenorhabditis elegans, UniProt Q9XUB2).
T1 sequence (Q9XUB2 whole entry): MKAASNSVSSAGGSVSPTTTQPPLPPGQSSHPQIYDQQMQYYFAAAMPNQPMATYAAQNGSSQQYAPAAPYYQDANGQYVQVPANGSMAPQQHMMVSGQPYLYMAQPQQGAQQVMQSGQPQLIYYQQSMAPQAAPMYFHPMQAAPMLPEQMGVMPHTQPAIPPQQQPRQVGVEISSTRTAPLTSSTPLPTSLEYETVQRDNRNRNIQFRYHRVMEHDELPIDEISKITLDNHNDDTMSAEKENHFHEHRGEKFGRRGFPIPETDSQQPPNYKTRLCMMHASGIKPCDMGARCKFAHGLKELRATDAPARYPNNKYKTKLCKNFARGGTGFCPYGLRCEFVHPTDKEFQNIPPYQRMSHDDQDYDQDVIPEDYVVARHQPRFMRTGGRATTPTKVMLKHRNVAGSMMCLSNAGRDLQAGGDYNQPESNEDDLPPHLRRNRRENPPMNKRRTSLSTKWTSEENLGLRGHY
Put plainly: MEX-5/TCR-2 RNA interaction inhibitors, dose response, biochemical, C. elegans, fluorescence polarization (AID 1960). (In general: In fluorescence polarisation assays a small probe gives low polarisation when free and higher when bound to something large.)

Experiment [2] deals with Voltage-dependent T-type calcium channel subunit alpha-1H (Homo sapiens, UniProt O95180). It is filed as functional.
Voltage-dependent T-type calcium channel subunit alpha-1H, sequence (O95180 whole entry): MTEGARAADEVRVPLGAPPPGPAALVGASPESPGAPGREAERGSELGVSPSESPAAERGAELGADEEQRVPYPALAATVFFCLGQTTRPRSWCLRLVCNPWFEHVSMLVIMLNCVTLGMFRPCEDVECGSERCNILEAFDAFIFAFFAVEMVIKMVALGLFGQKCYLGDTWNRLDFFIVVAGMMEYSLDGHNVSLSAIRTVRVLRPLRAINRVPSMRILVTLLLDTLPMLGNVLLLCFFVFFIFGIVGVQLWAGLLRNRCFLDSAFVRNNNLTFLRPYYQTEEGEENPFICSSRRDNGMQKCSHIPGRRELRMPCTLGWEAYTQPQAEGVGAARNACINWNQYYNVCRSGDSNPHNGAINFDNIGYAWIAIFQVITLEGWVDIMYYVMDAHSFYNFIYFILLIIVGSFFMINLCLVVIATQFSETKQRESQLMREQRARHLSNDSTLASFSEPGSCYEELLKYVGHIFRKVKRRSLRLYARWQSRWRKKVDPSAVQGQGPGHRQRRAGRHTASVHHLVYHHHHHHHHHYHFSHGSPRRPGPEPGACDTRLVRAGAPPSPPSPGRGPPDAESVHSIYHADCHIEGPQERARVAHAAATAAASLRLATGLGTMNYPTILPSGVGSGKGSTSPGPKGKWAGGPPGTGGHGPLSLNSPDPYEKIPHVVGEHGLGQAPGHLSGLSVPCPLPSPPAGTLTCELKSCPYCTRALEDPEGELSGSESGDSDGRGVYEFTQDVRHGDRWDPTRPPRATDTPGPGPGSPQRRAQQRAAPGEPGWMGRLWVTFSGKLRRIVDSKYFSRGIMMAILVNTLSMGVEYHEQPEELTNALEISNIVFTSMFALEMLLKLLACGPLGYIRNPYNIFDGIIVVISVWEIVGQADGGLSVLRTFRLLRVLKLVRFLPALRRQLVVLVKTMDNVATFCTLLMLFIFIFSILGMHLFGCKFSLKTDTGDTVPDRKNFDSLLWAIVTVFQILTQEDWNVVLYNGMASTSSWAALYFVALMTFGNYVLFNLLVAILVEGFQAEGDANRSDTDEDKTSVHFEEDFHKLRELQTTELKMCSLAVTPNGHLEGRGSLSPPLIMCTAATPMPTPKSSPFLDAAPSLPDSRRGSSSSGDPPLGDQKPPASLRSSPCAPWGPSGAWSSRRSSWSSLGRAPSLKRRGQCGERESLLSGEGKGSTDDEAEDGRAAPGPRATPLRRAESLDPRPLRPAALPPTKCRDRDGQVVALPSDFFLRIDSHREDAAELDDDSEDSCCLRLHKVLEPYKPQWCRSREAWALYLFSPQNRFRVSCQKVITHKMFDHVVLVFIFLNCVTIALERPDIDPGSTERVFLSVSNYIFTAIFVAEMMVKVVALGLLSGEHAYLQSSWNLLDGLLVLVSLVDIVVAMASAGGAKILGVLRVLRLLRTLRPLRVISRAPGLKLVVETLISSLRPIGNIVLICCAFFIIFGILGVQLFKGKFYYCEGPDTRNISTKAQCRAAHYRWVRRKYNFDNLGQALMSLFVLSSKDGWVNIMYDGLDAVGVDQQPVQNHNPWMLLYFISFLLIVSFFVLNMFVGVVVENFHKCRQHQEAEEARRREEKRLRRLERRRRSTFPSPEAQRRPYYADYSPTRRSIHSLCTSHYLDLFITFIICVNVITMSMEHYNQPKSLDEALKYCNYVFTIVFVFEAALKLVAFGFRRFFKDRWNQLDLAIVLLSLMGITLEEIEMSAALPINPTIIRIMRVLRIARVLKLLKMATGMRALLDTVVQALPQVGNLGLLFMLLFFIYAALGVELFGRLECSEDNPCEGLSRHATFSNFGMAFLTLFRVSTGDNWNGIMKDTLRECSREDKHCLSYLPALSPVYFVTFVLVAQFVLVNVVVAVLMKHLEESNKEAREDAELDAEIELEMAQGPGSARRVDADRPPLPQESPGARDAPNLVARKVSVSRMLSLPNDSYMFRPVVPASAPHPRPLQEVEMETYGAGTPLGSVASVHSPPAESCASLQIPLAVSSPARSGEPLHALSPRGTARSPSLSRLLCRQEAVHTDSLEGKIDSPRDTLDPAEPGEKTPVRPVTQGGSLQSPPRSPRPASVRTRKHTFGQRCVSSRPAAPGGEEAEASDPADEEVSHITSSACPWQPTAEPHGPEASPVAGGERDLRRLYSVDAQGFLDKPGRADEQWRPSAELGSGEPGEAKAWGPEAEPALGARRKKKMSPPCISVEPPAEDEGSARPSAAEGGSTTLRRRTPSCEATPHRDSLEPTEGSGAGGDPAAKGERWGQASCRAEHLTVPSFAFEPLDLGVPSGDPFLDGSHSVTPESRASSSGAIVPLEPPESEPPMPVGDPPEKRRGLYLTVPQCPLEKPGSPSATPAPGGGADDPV
In experiment [3] the target is G-protein coupled receptor 35 (Homo sapiens, UniProt Q9HC97). Nature of the experiment: GPR35 antagonists blocking zaprinast-driven arrestin recruitment, primary screen, imaging, U2OS, beta-arrestin-GFP, zaprinast agonist (AID 2058).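 Also: antagonist potency meaning inhibition of agonist-induced arrestin redistribution.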 It is filed as functional. (In general: Arrestin recruitment assays detect the binding of arrestin to an activated receptor.)
G-protein coupled receptor 35, sequence (Q9HC97 whole entry): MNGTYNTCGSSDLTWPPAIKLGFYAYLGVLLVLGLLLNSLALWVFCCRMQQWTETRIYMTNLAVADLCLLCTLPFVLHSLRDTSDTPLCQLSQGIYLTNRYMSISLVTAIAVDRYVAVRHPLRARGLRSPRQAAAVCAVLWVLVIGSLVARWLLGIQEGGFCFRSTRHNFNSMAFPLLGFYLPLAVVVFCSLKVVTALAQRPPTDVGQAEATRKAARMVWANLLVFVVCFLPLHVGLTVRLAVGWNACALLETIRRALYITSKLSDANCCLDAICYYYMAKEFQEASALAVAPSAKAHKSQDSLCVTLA
Experiment [4] can be described thus: growth suppression of beta-catenin-knockout colon cells, dose response, cell-based, HCT116, human colon tumor (AID 1045).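 Also: HCT116 colon tumor cells with beta catenin knocked out; cells exposed to compound for 60 hours.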 It is filed as functional.
Experiment [5] in a line: growth suppression of PTEN-null colon cells, dose response, cell-based, HCT116 PTEN knockout (AID 1047).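 Also: HCT116 colon tumor cells with PTEN knocked out; cells exposed to compound for 60 hours before readout; potency for loss of cell viability measured by luminescence.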 Format: functional.
Experiment [6] has as its target T2, RNA-binding protein pos-1 (Caenorhabditis elegans, UniProt G5EF15).
T2 sequence (G5EF15 whole entry): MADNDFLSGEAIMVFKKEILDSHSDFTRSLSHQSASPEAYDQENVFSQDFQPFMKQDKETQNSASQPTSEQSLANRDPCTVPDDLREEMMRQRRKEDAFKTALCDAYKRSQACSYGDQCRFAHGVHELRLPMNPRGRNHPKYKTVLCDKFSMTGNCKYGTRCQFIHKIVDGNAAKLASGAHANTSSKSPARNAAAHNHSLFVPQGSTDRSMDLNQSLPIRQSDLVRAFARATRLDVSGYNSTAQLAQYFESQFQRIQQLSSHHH
Put plainly: inhibitors of POS-1/mex-3 RNA binding, dose response, biochemical, fluorescence polarization (AID 1964).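 Also: purified POS-1 fused to maltose binding protein made in E. coli; potency of compounds blocking POS-1 binding to fluorescent RNA.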

Experiment [7] has as its target T3, Endoribonuclease toxin MazF (Escherichia coli K-12, UniProt P0AE70).
T3 sequence (P0AE70 whole entry): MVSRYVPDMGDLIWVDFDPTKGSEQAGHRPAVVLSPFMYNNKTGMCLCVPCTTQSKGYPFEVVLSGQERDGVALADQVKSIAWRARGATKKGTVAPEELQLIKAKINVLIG
Nature of the experiment: fluorescent RNA oligo signal without MazF, dose response, counter-screen for MazEF activator project, biochemical, fluorescence, single-stranded RNase substrate (AID 588502). Format: functional. For orientation: A counterscreen serves to expose hits that act by an unwanted route or on another target.

In experiment [8] the target is T4, Corticotropin-releasing factor receptor 2/Corticotropin-releasing factor-binding protein (Homo sapiens, UniProt P24387+Q13324).
T4 sequence (Q13324 whole entry): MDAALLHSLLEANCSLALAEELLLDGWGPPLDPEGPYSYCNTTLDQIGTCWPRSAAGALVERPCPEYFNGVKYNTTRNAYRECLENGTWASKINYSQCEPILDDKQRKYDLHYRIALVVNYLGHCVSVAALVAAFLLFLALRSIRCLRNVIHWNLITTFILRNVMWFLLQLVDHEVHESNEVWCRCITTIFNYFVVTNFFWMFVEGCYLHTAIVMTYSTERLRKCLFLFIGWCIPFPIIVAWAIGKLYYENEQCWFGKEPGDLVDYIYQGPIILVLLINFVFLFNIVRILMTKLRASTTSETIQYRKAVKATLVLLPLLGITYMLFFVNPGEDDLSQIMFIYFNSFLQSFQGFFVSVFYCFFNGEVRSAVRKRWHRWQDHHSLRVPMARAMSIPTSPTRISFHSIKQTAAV
T4 sequence (P24387 whole entry): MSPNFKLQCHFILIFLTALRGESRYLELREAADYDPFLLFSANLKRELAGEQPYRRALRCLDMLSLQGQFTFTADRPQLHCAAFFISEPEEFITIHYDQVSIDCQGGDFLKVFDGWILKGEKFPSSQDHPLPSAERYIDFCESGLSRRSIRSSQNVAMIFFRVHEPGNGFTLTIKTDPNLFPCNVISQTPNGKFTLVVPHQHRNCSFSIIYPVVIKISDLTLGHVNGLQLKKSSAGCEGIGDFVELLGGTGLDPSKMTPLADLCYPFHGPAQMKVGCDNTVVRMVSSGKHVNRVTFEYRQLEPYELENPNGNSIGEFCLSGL
Nature of the experiment: activators of CRF receptor 2 with binding protein – uHTS hits, confirmation (AID 602473). To be noted: read-out: EC50_Mean. It is filed as functional.

In experiment [9] the target is T3, Endoribonuclease toxin MazF. Put plainly: MazF toxin RNase activators, dose response, biochemical, fluorescence, single-stranded RNA substrate, uHTS hits (AID 588481). It is filed as functional.
Experiment [10] deals with T5, Replicative DNA helicase DnaB (Mycobacterium tuberculosis, UniProt P9WMR3).
T5 sequence (P9WMR3 whole entry): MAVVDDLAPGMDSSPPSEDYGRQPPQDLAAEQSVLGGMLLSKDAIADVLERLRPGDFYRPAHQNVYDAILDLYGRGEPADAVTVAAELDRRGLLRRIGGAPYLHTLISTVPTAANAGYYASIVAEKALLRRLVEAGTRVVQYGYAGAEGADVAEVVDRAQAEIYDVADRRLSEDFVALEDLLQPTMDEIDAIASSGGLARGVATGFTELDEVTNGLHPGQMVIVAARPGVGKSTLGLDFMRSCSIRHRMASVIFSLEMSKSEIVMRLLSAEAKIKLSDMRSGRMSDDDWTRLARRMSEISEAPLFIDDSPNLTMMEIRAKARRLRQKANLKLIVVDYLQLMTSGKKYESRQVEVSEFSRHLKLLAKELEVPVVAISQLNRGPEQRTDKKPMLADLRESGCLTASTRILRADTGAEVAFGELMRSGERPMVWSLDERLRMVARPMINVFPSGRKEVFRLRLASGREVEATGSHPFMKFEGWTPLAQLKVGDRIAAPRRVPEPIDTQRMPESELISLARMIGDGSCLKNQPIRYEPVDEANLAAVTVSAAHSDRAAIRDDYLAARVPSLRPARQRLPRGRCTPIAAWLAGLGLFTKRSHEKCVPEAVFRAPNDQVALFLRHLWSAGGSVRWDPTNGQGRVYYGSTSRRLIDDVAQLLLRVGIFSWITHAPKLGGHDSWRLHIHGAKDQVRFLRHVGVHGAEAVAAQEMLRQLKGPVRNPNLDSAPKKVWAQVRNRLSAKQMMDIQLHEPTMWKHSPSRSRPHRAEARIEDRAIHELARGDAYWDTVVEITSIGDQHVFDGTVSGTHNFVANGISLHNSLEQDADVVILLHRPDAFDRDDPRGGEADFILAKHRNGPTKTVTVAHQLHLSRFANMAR
Nature of the experiment: DnaB intein splicing inhibitors, dose response, biochemical, cell-free fluorescence (AID 449749). Format: functional.

A further experiment addresses T6, Protein RecA (Mycobacterium tuberculosis, UniProt P9WHJ3).
T6 sequence (P9WHJ3 whole entry): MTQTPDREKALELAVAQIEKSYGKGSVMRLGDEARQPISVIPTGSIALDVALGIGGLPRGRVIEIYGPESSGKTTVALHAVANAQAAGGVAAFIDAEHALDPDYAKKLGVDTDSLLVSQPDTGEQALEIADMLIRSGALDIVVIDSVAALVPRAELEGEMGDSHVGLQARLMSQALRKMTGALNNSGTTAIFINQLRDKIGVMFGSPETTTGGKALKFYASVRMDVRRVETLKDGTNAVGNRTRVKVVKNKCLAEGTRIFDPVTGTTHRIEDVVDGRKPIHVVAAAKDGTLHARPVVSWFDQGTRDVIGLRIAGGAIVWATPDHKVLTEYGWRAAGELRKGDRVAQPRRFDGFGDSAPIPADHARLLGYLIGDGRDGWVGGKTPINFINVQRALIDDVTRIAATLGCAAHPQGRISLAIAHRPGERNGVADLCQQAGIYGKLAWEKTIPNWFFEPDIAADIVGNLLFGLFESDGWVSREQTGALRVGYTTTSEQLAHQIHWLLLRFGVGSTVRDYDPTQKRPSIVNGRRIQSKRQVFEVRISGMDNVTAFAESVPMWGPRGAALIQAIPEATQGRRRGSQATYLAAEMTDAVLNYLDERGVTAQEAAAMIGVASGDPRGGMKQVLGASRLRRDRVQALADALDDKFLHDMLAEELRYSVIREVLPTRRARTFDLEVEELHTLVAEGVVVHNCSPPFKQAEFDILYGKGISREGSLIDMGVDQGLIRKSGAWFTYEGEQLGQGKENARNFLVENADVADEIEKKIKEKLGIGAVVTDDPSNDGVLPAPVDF
Nature of the experiment: Fluorescence Cell-Free Homogeneous Dose Retest to Identify Inhibitors of RecA-Intein Splicing Activity. [Related pubchem assays (depositor defined):AID2097, AID2223, AID489010, AID492950]. Format: functional.

The nature of experiment [11]: HepG2 cell cytotoxicity, dose response, cytotoxicity control, plate reader, cherry-pick, antagonist series (AID 743416). Format: functional, cell-based.
The target in a further experiment is T7, Protein skinhead-1 (Caenorhabditis elegans, UniProt P34707).
T7 sequence (P34707 whole entry): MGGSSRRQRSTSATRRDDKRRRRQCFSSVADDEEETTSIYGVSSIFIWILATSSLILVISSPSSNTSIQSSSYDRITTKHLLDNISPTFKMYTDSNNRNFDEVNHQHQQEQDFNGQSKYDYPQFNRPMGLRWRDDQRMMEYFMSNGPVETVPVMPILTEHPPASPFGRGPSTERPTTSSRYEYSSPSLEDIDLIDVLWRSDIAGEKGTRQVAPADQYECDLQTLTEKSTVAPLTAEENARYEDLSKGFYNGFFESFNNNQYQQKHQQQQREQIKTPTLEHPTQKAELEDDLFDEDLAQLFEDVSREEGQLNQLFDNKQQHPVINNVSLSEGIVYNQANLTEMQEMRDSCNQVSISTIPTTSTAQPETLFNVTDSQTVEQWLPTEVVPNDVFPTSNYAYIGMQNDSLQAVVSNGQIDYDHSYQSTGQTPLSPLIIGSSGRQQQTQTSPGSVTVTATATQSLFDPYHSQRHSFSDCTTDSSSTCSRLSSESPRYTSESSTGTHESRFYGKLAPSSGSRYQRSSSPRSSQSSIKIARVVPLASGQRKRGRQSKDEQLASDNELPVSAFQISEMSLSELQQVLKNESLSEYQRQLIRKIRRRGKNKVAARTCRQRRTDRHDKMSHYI
It is filed as functional.

The nature of experiment [12]: A549 cell cytotoxicity, dose response, cytotoxicity control, plate reader, cherry-pick, antagonist series (AID 743412). Format: functional, cell-based.
A short description of experiment [13]: LGR2 antagonists, dose response, cell-based, HEK293, CRE-luciferase reporter, cherry pick, set 2 (AID 743343).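 Also: transfected cells were stimulated with diluted bursicon conditioned medium after compound addition.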 It is filed as functional.
Experiment [14] is described as follows: HEK293 cell cytotoxicity, dose response, cytotoxicity control, plate reader, cherry-picked samples (AID 743446). Format: functional, cell-based.
Experiment [15] can be described thus: MC4R antagonists, dose response, counter-screen for LGR2 antagonist project, cell-based, plate reader, cherry pick (AID 743444).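 Also: transfected HEK 293 cells stimulated with alpha-MSH peptide; potency of inhibitors of the alpha-MSH evoked signal.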 Format: functional.

Calls of active or inactive are those of the source. A value given as a limit tells only on which side of the number the result lay.

With `CCN(CC)c1ccc(/C=C(/C#N)c2nc3ccccc3[nH]2)c(OC(C)C)c1`, the EC50 was 8.13 µM (active) in [1]; 3.84 µM (active) in experiment [2]; 11.1 µM (active) in experiment [4]; 11.2 µM (active) in [5]; 3.96 µM (active) in experiment [6]. The half-inhibitory concentration (IC50) in [3] was 1.19 µM (active).
Turning to `COc1ccc(/C=c2\s/c(=C/C(=O)c3ccc(C)cc3)[nH]c2=O)c(OC)c1`, the IC50 in experiment [3] was 1.76 µM (active). Moreover, the EC50 in experiment [7] was > 99 µM (inactive); in experiment [8] it was 10.7 µM (active); in [9], > 99 µM (inactive).
For `Cc1ccccc1NC(=O)c1sc2nc3c(c(-c4ccco4)c2c1N)CCCC3`, in experiment [2], the EC50 is 10.1 µM (active).
Consider `CCOC(=O)C1CCCN(S(=O)(=O)c2ccc(OC)c3ccccc23)C1` (stereo unspecified), for which, in experiment [2], the EC50 is 0.647 µM (active).
`O=c1c(Cl)c(Cl)cnn1Cc1ccccc1Cl`: in experiment [3], the IC50 was 2.16 µM (active). In addition, the half-maximal activity concentration (AC50) in [10] is 15.5 µM (active). The EC50 at Protein RecA is 7.78 µM (active).
As to `CN(C)CC(O)c1ccc(C=Cc2ccc(Cl)cc2)cc1` (stereo unspecified), the AC50 in experiment [11] is 8.24 µM (active); in experiment [12] it was 8.82 µM (active); in experiment [13], 14.6 µM (active); in [14], 14.3 µM (active); in experiment [15], 12.7 µM (active). In addition, the IC50 on Protein skinhead-1 was 58.1 µM (inactive).
